Earlier results in PubChem BioAssay AID1259409 (Chemical Carcinogenesis Research Information System (CCRIS), 2018).

Test system: rodent chemically induced tumor inhibition, incidence and multiplicity
Assay: CCRIS tumor inhibitor studies
Details: for tumour outcome (control, treated, inhibition, significance): Species: RAT

C=CCSSCC=C
tumour outcome (control, treated, inhibition, significance) (Carcinogen: 2-AMINO-1-METHYL-6-PHENYLIMIDAZO[4,5-B]PYRIDINE [105650-23-5], Dose [Inhibitor]: 200 PPM IN DIET FOR 4 WK BEGINNING WK PRIOR TO FIRST CARCINOGEN DOSE (STUDY DURATION: 25 WK), Route [Inhibitor]: ORAL, Strain/Sex: SPRAGUE-DAWLEY/FEMALE, Target Tissue: Type of Lesion: MAMMARY GLAND: FIBROADENOMA OR DUCTAL CARCINOMA, Dose [Carcinogen]: 85 MG/KG BW 2X/WK FOR 4 WK (STUDY DURATION: 25 WK), Promoter: NONE): 68%, 52%, 24%, not significant | tumour outcome (control, treated, inhibition, significance) (Carcinogen: 2-AMINO-1-METHYL-6-PHENYLIMIDAZO[4,5-B]PYRIDINE, 105650-23-5, Dose [Inhibitor]: 0, 200 PPM IN HIGH FAT DIET FOR 4 WK BEGINNING 1 WK PRIOR TO CARCINOGEN TREATMENT (STUDY DURATION: 25 WK), Route [Inhibitor]: ORAL, Strain/Sex: SPRAGUE-DAWLEY/FEMALE, Target Tissue: Type of Lesion: MAMMARY GLAND: CARCINOMA, Dose [Carcinogen]: 85 MG/KG BW IN CORN OIL 8 TIMES IN 10 D, Promoter: NONE USED): 21/31 (68%), 16/31 (52%), 24%, not calculated | tumour outcome (control, treated, inhibition, significance) (Carcinogen: 2-AMINO-1-METHYL-6-PHENYLIMIDAZO[4,5-B]PYRIDINE, 105650-23-5, Dose [Inhibitor]: 0, 200 PPM IN HIGH FAT DIET FOR 4 WK BEGINNING 1 WK PRIOR TO CARCINOGEN TREATMENT (STUDY DURATION: 25 WK), Route [Inhibitor]: ORAL, Strain/Sex: SPRAGUE-DAWLEY/FEMALE, Target Tissue: Type of Lesion: MAMMARY GLAND: FIBROADENOMA, Dose [Carcinogen]: 85 MG/KG BW IN CORN OIL 8 TIMES IN 10 D, Promoter: NONE USED): 3/31 (10%), 0/31 (0%), 100%, not calculated | tumour outcome (control, treated, inhibition, significance) (Carcinogen: 7,12-DIMETHYLBENZ[A]ANTHRACENE, 57-97-6, Dose [Inhibitor]: 0, 1.8 MMOL/KG BW IN CORN OIL 96, 48 AND 24 HR PRIOR TO CARCINOGEN TREATMENT (STUDY DURATION: 25 WK), Route [Inhibitor]: GAVAGE, Strain/Sex: SPRAGUE-DAWLEY/FEMALE, Target Tissue: Type of Lesion: MAMMARY GLAND: ADENOCARCINOMA, Dose [Carcinogen]: 10 MG ONCE, Promoter: NONE USED): 92%, 36%, 61%, p<0.05 | tumour outcome (control, treated, inhibition, significance) (Carcinogen: AZOXYMETHANE, 25843-45-2, Dose [Inhibitor]: 0, 100 PPM IN DIET BEGINNING 2 WK PRIOR TO CARCINOGEN TREATMENT AND CONTINUING FOR DURATION OF STUDY (STUDY DURATION: 56, Route [Inhibitor]: ORAL, Strain/Sex: F344/MALE, Target Tissue: Type of Lesion: COLON: INVASIVE ADENOCARCINOMA, Dose [Carcinogen]: 15 MG/KG 1/WK FOR 2 WK, Promoter: NONE USED): 34%, 11%, 68%, p<0.05 | tumour outcome (control, treated, inhibition, significance) (Carcinogen: AZOXYMETHANE, 25843-45-2, Dose [Inhibitor]: 0, 100 PPM IN DIET BEGINNING 2 WK PRIOR TO CARCINOGEN TREATMENT AND CONTINUING FOR DURATION OF STUDY (STUDY DURATION: 56, Route [Inhibitor]: ORAL, Strain/Sex: F344/MALE, Target Tissue: Type of Lesion: COLON: NONINVASIVE ADENOCARCINOMA, Dose [Carcinogen]: 15 MG/KG 1/WK FOR 2 WK, Promoter: NONE USED): 53%, 53%, 0%, not significant | tumour outcome (control, treated, inhibition, significance) (Carcinogen: AZOXYMETHANE, 25843-45-2, Dose [Inhibitor]: 0, 200 PPM IN DIET BEGINNING 2 WK PRIOR TO CARCINOGEN TREATMENT AND CONTINUING FOR DURATION OF STUDY (STUDY DURATION: 56, Route [Inhibitor]: ORAL, Strain/Sex: F344/MALE, Target Tissue: Type of Lesion: COLON: INVASIVE ADENOCARCINOMA, Dose [Carcinogen]: 15 MG/KG 1/WK FOR 2 WK, Promoter: NONE USED): 34%, 6%, 82%, p<0.01 | tumour outcome (control, treated, inhibition, significance) (Carcinogen: AZOXYMETHANE, 25843-45-2, Dose [Inhibitor]: 0, 200 PPM IN DIET BEGINNING 2 WK PRIOR TO CARCINOGEN TREATMENT AND CONTINUING FOR DURATION OF STUDY (STUDY DURATION: 56, Route [Inhibitor]: ORAL, Strain/Sex: F344/MALE, Target Tissue: Type of Lesion: COLON: NONINVASIVE ADENOCARCINOMA, Dose [Carcinogen]: 15 MG/KG 1/WK FOR 2 WK, Promoter: NONE USED): 53%, 58%, -9%, not significant | tumour outcome (control, treated, inhibition, significance) (Carcinogen: DIETHYLNITROSAMINE, 55-18-5, N-METHYL-N-NITROSOUREA, 684-93-5, N,N'-DIMETHYLHYDRAZINE, 540-73-8, N-BUTYL-N-(4-HYDR, Carcinogen: DIETHYLNITROSAMINE, 55-18-5, N-METHYL-N-NITROSOUREA, 684-93-5, N,N'-DIMETHYLHYDRAZINE, 540-73-8, N-BUTYL-N-(4-HYDR, Dose [Inhibitor]: 0, 50 MG/KG BW IN CORN OIL 3/WK FOR 6 WK BEGINNING POST CARCINOGEN TREATMENT (STUDY DURATION: 28 WK), Route [Inhibitor]: GAVAGE, Strain/Sex: F344/MALE, Target Tissue: Type of Lesion: KIDNEY: RENAL CELL ADENOMA, Dose [Carcinogen]: 100 MG/KG BW DEN ONCE, 20 MG/KG BW MNU ONCE ON D 2, 5, 8 AND 11, 40 MG/KG BW DMH ON D 14, 17, 20 AND 23, 0.05% BHBN I, Dose [Carcinogen]: 100 MG/KG BW DEN ONCE, 20 MG/KG BW MNU ONCE ON D 2, 5, 8 AND 11, 40 MG/KG BW DMH ON D 14, 17, 20 AND 23, 0.05% BHBN I, Promoter: NONE USED): 4/20 (20%), 0/19 (0%), 100%, not calculated | tumour outcome (control, treated, inhibition, significance) (Carcinogen: DIETHYLNITROSAMINE, 55-18-5, N-METHYL-N-NITROSOUREA, 684-93-5, N,N'-DIMETHYLHYDRAZINE, 540-73-8, N-BUTYL-N-(4-HYDR, Carcinogen: DIETHYLNITROSAMINE, 55-18-5, N-METHYL-N-NITROSOUREA, 684-93-5, N,N'-DIMETHYLHYDRAZINE, 540-73-8, N-BUTYL-N-(4-HYDR, Dose [Inhibitor]: 0, 50 MG/KG BW IN CORN OIL 3/WK FOR 6 WK BEGINNING POST CARCINOGEN TREATMENT (STUDY DURATION: 28 WK), Route [Inhibitor]: GAVAGE, Strain/Sex: F344/MALE, Target Tissue: Type of Lesion: LARGE INTESTINE: ADENOMA, Dose [Carcinogen]: 100 MG/KG BW DEN ONCE, 20 MG/KG BW MNU ONCE ON D 2, 5, 8 AND 11, 40 MG/KG BW DMH ON D 14, 17, 20 AND 23, 0.05% BHBN I, Dose [Carcinogen]: 100 MG/KG BW DEN ONCE, 20 MG/KG BW MNU ONCE ON D 2, 5, 8 AND 11, 40 MG/KG BW DMH ON D 14, 17, 20 AND 23, 0.05% BHBN I, Promoter: NONE USED): 6/20 (30%), 1/19 (5%), 83%, p<0.01 | tumour outcome (control, treated, inhibition, significance) (Carcinogen: DIETHYLNITROSAMINE, 55-18-5, N-METHYL-N-NITROSOUREA, 684-93-5, N,N'-DIMETHYLHYDRAZINE, 540-73-8, N-BUTYL-N-(4-HYDR, Carcinogen: DIETHYLNITROSAMINE, 55-18-5, N-METHYL-N-NITROSOUREA, 684-93-5, N,N'-DIMETHYLHYDRAZINE, 540-73-8, N-BUTYL-N-(4-HYDR, Dose [Inhibitor]: 0, 50 MG/KG BW IN CORN OIL 3/WK FOR 6 WK BEGINNING POST CARCINOGEN TREATMENT (STUDY DURATION: 28 WK), Route [Inhibitor]: GAVAGE, Strain/Sex: F344/MALE, Target Tissue: Type of Lesion: LARGE INTESTINE: CARCINOMA, Dose [Carcinogen]: 100 MG/KG BW DEN ONCE, 20 MG/KG BW MNU ONCE ON D 2, 5, 8 AND 11, 40 MG/KG BW DMH ON D 14, 17, 20 AND 23, 0.05% BHBN I, Dose [Carcinogen]: 100 MG/KG BW DEN ONCE, 20 MG/KG BW MNU ONCE ON D 2, 5, 8 AND 11, 40 MG/KG BW DMH ON D 14, 17, 20 AND 23, 0.05% BHBN I, Promoter: NONE USED): 8/20 (40%), 3/19 (16%), 60%, not calculated | tumour outcome (control, treated, inhibition, significance) (Carcinogen: DIETHYLNITROSAMINE, 55-18-5, N-METHYL-NITROSOUREA ;684-93-5, N,N'-DIMETHYLHYDRAZINE, 540-73-8, N-BUTYL-N-(4-HYDROXY, Carcinogen: DIETHYLNITROSAMINE, 55-18-5, N-METHYL-NITROSOUREA ;684-93-5, N,N'-DIMETHYLHYDRAZINE, 540-73-8, N-BUTYL-N-(4-HYDROXY, Dose [Inhibitor]: 0, 50 MG/KG BW IN CORN OIL 3/WK FOR 6 WK BEGINNING POST CARCINOGEN TREATMENT (STUDY DURATION: 28 WK), Route [Inhibitor]: GAVAGE, Strain/Sex: F344/MALE, Target Tissue: Type of Lesion: KIDNEY: NEPHROBLASTOMA, Dose [Carcinogen]: 100 MG/KG BW DEN ONCE, 20 MG/KG BW MNU ONCE ON D 2, 5, 8 AND 11, 40 MG/KG BW DMH ON D 14, 17, 20 AND 23, 0.05% BHBN I, Dose [Carcinogen]: 100 MG/KG BW DEN ONCE, 20 MG/KG BW MNU ONCE ON D 2, 5, 8 AND 11, 40 MG/KG BW DMH ON D 14, 17, 20 AND 23, 0.05% BHBN I, Promoter: NONE USED): 5/20 (25%), 0/19 (0%), 100%, p<0.05 | tumour outcome (control, treated, inhibition, significance) (Carcinogen: DIETHYLNITROSAMINE, 55-18-5, N-METHYL-NITROSOUREA, 684-93-5, N,N'-DIMETHYLHYDRAZINE, 540-73-8, N-BUTYL-N-(4-HYDROX, Carcinogen: DIETHYLNITROSAMINE, 55-18-5, N-METHYL-NITROSOUREA, 684-93-5, N,N'-DIMETHYLHYDRAZINE, 540-73-8, N-BUTYL-N-(4-HYDROX, Dose [Inhibitor]: 0, 50 MG/KG BW IN CORN OIL 3/WK FOR 6 WK BEGINNING POST CARCINOGEN TREATMENT (STUDY DURATION: 28 WK), Route [Inhibitor]: GAVAGE, Strain/Sex: F344/MALE, Target Tissue: Type of Lesion: KIDNEY: RENAL CELL CARCINOMA, Dose [Carcinogen]: 100 MG/KG BW DEN ONCE, 20 MG/KG BW MNU ONCE ON D 2, 5, 8 AND 11, 40 MG/KG BW DMH ON D 14, 17, 20 AND 23, 0.05% BHBN I, Dose [Carcinogen]: 100 MG/KG BW DEN ONCE, 20 MG/KG BW MNU ONCE ON D 2, 5, 8 AND 11, 40 MG/KG BW DMH ON D 14, 17, 20 AND 23, 0.05% BHBN I, Promoter: NONE USED): 1/20 (5%), 0/19 (0%), 100%, not calculated | tumour outcome (control, treated, inhibition, significance) (Carcinogen: N-METHYL-N-NITROSOUREA, 684-93-5, Dose [Inhibitor]: 0, 57 UMOL/KG DIET FOR 25 WK BEGINNING 2 WK PRIOR TO CARCINOGEN DOSE (STUDY DURATION: 25 WK), Route [Inhibitor]: ORAL, Strain/Sex: SPRAGUE-DAWLEY/FEMALE, Target Tissue: Type of Lesion: MAMMARY GLAND: TUMOR, Dose [Carcinogen]: 15 MG/KG BW ONCE, Promoter: NONE USED): 81%, 38%, 53%, p<0.05 | outcome (Carcinogen: N-methyl-N-nitrosourea (684-93-5), Dose [Inhibitor]: 0, 150 mg/kg bw by gavage 2 x a wk for 16 wks of hormones and MNU, study duration 16 wks, Dose [Inhibitor]: 0, 150 mg/kg bw by gavage 2 x a wk for 16 wks of hormones and MNU, study duration 16 wks, Route [Inhibitor]: Oral, Species: Rat, Strain/Sex: Sprague-Dawley/Male, Target Tissue: Type of Lesion: Prostate: Prostatic intraepithelial neoplasia, Dose [Carcinogen]: 150 mg/kg bw once, Promoter: Cyproterone acetate (427-51-0) and testosterone propionate (57-85-2)): dorsolateral prostate: 40% (hormones + mnu); 10% (hormones + mnu + diallyl sulfi
